Experimental data: PMC4845010, “Three TaFAR genes function in the biosynthesis of primary alcohols and the response to abiotic stresses in Triticum aestivum” (Scientific Reports, 2016)

Target: T1, TaFAR3 (Triticum aestivum, UniProt A0A142IX60)
T1 construct: gene FAR3; full-length ORF, 497 residues (1,494 bp), untagged expression from pYES2/pYES3 in Saccharomyces cerevisiae; gene on chromosome 4BS
T1 sequence (A0A142IX60 1-497): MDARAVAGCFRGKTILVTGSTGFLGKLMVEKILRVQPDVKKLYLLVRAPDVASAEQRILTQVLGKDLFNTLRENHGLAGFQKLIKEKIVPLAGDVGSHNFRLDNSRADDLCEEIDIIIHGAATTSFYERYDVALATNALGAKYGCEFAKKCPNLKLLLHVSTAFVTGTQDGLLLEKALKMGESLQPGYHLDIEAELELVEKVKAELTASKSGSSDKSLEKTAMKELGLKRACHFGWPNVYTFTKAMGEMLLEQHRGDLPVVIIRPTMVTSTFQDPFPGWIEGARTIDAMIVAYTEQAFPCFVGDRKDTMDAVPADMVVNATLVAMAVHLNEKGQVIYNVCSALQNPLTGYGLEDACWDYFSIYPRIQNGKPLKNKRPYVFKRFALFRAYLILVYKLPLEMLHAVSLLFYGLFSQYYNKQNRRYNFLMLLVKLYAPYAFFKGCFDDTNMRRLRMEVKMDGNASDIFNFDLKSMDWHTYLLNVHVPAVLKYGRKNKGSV
Test: heterologous expression in yeast, lipid extraction, TLC and GC-MS
Format: cell-based
Settings: yeast mutant INVSur4# (Sur4 F262A/K266L); endogenous acyl-CoA substrates; none in empty-vector control

## CCCCCCCCCCCCCCCCCCCCCCCCCCCCO [C28:0-OH]
  heterologous expression in yeast, lipid extraction, TLC and GC-MS: In the case of TaFAR3, the highest production of primary alcohol was C28:0-OH
